This is an account of results in US12534496B2, “Polymorphic forms of Cyclo (-His-Pro) and methods of use to treat kidney disease” (NovMetaPharma Co., Ltd., priority 2018, dated 2026).

Type in all cases: physicochemical
Series [1] can be described thus: Solvent solubility screen of CHP lyophile. As for the experimental part: To a known mass of CHP lyophile (10 mg, from Section 5.2.2), 100 μL of the appropriate solvent was added and if solid remained the vial was gently heated to ˜40° C. to aid dissolution. Solvent addition continued until the material fully dissolved or 2 mL had been added (<5 mg/mL). The samples were uncapped and allowed to evaporate at ambient. The solvents used in the solubility screen can be found in Table 21.

Series [2] is described as follows: Competitive slurry of Pattern 1 and Pattern 2 in EtOH/water/MtBE (form stability, XRPD). On the procedure:
In order to study form stability in EtOH/water/MtBE, competitive repining experiments were carried out at 50° C., 35° C., and 5° C. respectively, by adding 100 mg of anhydrous Pattern 1 solid and 100 mg of Pattern 2 solid.

Series [3] is described as follows: 8-week stability assessment at 40 °C/75% RH (XRPD, appearance, chiral HPLC). The settings on record: for Chiral Purity: chiral HPLC. On the procedure: XRPD analysis was carried out on a PANalytical X'pert pro, scanning the samples between 3 and 35° 2θ. The material was gently ground to release any agglomerates and loaded onto a multi-well plate with Kapton or Mylar polymer film to support the sample. The multi-well plate was then placed into the diffractometer and analyzed using Cu K radiation (α1λ=1.54060 Å; α2=1.54443 Å; β=1.39225 Å; α1: α2 ratio=0.5) running in transmission mode (step size 0.0130° 2θ) using 40 kV/40 mA generator settings.
13. Chiral HPLC Column: Daicel IC (5.0 um, 250*4.6 mm) Column Temperature: 30° C. Injection Volume: 5 μL Flow Rate: 1.0 mL/min Mobile Phase A: 0.01% DEA in n-Hexane Mobile Phase B: EtOH:MeOH=2:8 (v/v) Diluent: Acetonitrile PDA Range: 220 nm Gradient program: […]

Series [4] is described as follows: 1 day stability assessment at 40 °C/75% RH (XRPD). The settings on record: 2 hours at 40 °C/75% RH.

Entries after “also recorded” stand apart in the source; their conditions may differ.

Consider `O=C1N[C@@H](Cc2cnc[nH]2)C(=O)N2CCC[C@@H]12` [CHP Lyophile, Cyclo (-His-Pro)], for which the “Approximate Solubility” value in series [1] (1-Butanol) is no less than 5000 µg/mL; in series [1] (2-Butanol), no less than 5000 µg/mL; in series [1] (Dichloromethane) it was no more than 5000 µg/mL; in series [1] (Ethyl Acetate), no more than 5000 µg/mL; in series [1] (Ethyl Formate) it was no more than 5000 µg/mL; in series [1] (Heptane) it was no more than 5000 µg/mL. The “Approximate Solubility” value in series [1] (Isopropyl Acetate), in series [1] (Methylethyl Ketone), in series [1] (Methylisobutyl Ketone), in series [1] (Nitromethane), in series [1] (THF) and in series [1] (acetone) was no more than 5000 µg/mL throughout. The “Approximate Solubility” value in series [1] (acetonitrile) and in series [1] (tert-Butylmethyl Ether) was no more than 5000 µg/mL throughout.

Consider `O=C1N[C@@H](Cc2c[nH]cn2)C(=O)N2CCC[C@@H]12` [Pattern 1 and Pattern 2], for which the XRPD tracking entry in series [2] ((EtOH:H2O = 9:1):MTBE = 1:2, 5 °C, 0 h) is recorded as “Pattern 2”; in series [2] ((EtOH:H2O = 9:1):MTBE = 1:2, 5 °C, 2 h), “Pattern 2”; in series [2] ((EtOH:H2O = 9:1):MTBE = 1:2, 5 °C, 6 d) it was “Pattern 2”; in series [2] ((EtOH:H2O = 9:1):MTBE = 1:2, 5 °C, 7 d), “Pattern 2”; in series [2] ((EtOH:H2O = 9:1):MTBE = 1:2, 35 °C, 0 h), “Pattern 2”; in series [2] ((EtOH:H2O = 9:1):MTBE = 1:2, 35 °C, 2 h), “Pattern 2”. Besides, the XRPD tracking result was “Pattern 2” in series [2] ((EtOH:H2O = 9:1):MTBE = 1:2, 50 °C, 0 h); “Pattern 2” in series [2] ((EtOH:H2O = 9:1):MTBE = 1:2, 50 °C, 2 h); “Pattern 2” in series [2] ((EtOH:H2O = 9:1):MTBE = 1:3, 5 °C, 0 h); “Pattern 2” in series [2] ((EtOH:H2O = 9:1):MTBE = 1:3, 5 °C, 2 h); “Pattern 2” in series [2] ((EtOH:H2O = 9:1):MTBE = 1:3, 5 °C, 6 d); “Pattern 2” in series [2] ((EtOH:H2O = 9:1):MTBE = 1:3, 5 °C, 7 d). Also, the XRPD tracking result was “Pattern 2” in series [2] ((EtOH:H2O = 9:1):MTBE = 1:3, 35 °C, 0 h); “Pattern 2” in series [2] ((EtOH:H2O = 9:1):MTBE = 1:3, 35 °C, 2 h); “Pattern 2” in series [2] ((EtOH:H2O = 9:1):MTBE = 1:3, 35 °C, 6 d); “Pattern 2” in series [2] ((EtOH:H2O = 9:1):MTBE = 1:3, 35 °C, 7 d); “Pattern 2” in series [2] ((EtOH:H2O = 9:1):MTBE = 1:3, 50 °C, 0 h); “Pattern 2” in series [2] ((EtOH:H2O = 9:1):MTBE = 1:3, 50 °C, 2 h). Moreover, the XRPD tracking entry in series [2] ((EtOH:H2O = 9:1):MTBE = 1:3, 50 °C, 6 d) is recorded as “Pattern 2”; in series [2] ((EtOH:H2O = 9:1):MTBE = 1:3, 50 °C, 7 d), “Pattern 2”; in series [2] ((EtOH:H2O = 9:1):MTBE = 2.5:0.5, 5 °C, 0 h), “Pattern 2”; in series [2] ((EtOH:H2O = 9:1):MTBE = 2.5:0.5, 5 °C, 2 h), “Pattern 2”; in series [2] ((EtOH:H2O = 9:1):MTBE = 2.5:0.5, 5 °C, 6 d) it was “Pattern 2”; in series [2] ((EtOH:H2O = 9:1):MTBE = 2.5:0.5, 5 °C, 7 d) it was “Pattern 2”. Moreover, the XRPD tracking entry is reported as “Pattern 2” in series [2] ((EtOH:H2O = 9:1):MTBE = 2.5:0.5, 35 °C, 0 h); “Pattern 2” in series [2] ((EtOH:H2O = 9:1):MTBE = 2.5:0.5, 35 °C, 2 h); “Pattern 2” in series [2] ((EtOH:H2O = 9:1):MTBE = 2.5:0.5, 35 °C, 6 d); “Pattern 2” in series [2] ((EtOH:H2O = 9:1):MTBE = 2.5:0.5, 35 °C, 7 d); “Pattern 2” in series [2] ((EtOH:H2O = 9:1):MTBE = 2.5:0.5, 50 °C, 0 h); “Pattern 2” in series [2] ((EtOH:H2O = 9:1):MTBE = 2.5:0.5, 50 °C, 2 h). Moreover, the XRPD tracking entry in series [2] ((EtOH:H2O = 9:1):MTBE = 2.5:0.5, 50 °C, 6 d) was “Pattern 2”; in series [2] ((EtOH:H2O = 9:1):MTBE = 3:0, 5 °C, 0 h), “Pattern 2”; in series [2] ((EtOH:H2O = 9:1):MTBE = 3:0, 5 °C, 2 h), “Pattern 2”; in series [2] ((EtOH:H2O = 9:1):MTBE = 3:0, 5 °C, 6 d), “Pattern 2”; in series [2] ((EtOH:H2O = 9:1):MTBE = 3:0, 5 °C, 7 d), “Pattern 2”; in series [2] ((EtOH:H2O = 9:1):MTBE = 3:0, 35 °C, 0 h), “Pattern 2”. Besides, the XRPD tracking result in series [2] ((EtOH:H2O = 9:1):MTBE = 3:0, 35 °C, 2 h) is “Pattern 2”; in series [2] ((EtOH:H2O = 9:1):MTBE = 3:0, 35 °C, 6 d), “Pattern 2”; in series [2] ((EtOH:H2O = 9:1):MTBE = 3:0, 35 °C, 7 d) it was “Pattern 2”; in series [2] ((EtOH:H2O = 9:1):MTBE = 3:0, 50 °C, 0 h), “Pattern 2”.

On to `O=C1N[C@@H](Cc2cnc[nH]2)C(=O)N2CCC[C@@H]12` [Pure Pattern 1, Cyclo (-His-Pro)], for which the Appearance result in series [3] (2-week), in series [3] (4-week), in series [3] (8-week) and in series [3] (Initial) was “Faint beige” throughout. In addition, the “XRPD form after storage” value in series [3] (4 weeks) is listed as “remained as pattern 2”; in series [3] (8 weeks), “remained as pattern 2”; in series [3] (two weeks (14 days)) it was “converted to pattern 2; also recorded: converting to the hydrated pattern 2”; in series [4] (listed as Pure pattern 1), “convert to pattern 2”; in series [4] (listed as pure pattern 1), “converts to pattern 2”. Moreover, the “Chiral Purity” value in series [3] (2-week) was 99.9%; in series [3] (4-week) it was 99.9%; in series [3] (8-week), 99.9%; in series [3] (Initial) it was greater than 99.9%.
